Results as given in US20160044922A1, “Control of Ectoparasites” (priority 2014, published 2016).

Experiments:
tobacco bud worm = settings: cited from earlier work
fish, mammals = settings: fish versus mammals; cited from earlier work
beneficial mite species = settings: under normal use; cited from earlier work
fleas = assay: Activity on fleas; settings: in vivo
cotton aphids = settings: cited from earlier work
southern corn rootworm = settings: cited from earlier work
tobacco budworm = settings: cited from earlier work
[1] = system: predatory mites and many beneficial insects; settings: under field conditions; cited from earlier work
[2] = system: Larval-stage lone star ticks (Amblyomma americanum); assay: Dip survival assay, A. americanum larvae; format: in vivo; settings: larvae submerged 30 minutes, counted after 24 hours at 25° with 95% humidity
Experimental: Activity Against A. Americanum Larvae in a Dip Survival Assay
Compound 1 from a dimethyl sulfoxide (DMSO) stock or 2% DMSO alone is dispensed into a round-bottom 96-well plate and mixed with aqueous buffer containing 1% ethanol, 0.2% Triton X100. […] Larval-stage lone star ticks (Amblyomma americanum) are dispensed into the wells containing the Compound and submerged for 30 minutes. The ticks are subsequently dispensed into a tissue biopsy bag, which is allowed to dry for 1 hour. After drying, the bags are incubated at 25° with 95% humidity for 24 hours and the number of live or dead larvae are enumerated. The observations made illustrated in the following table.

[3] = rat versus trout liver microsomes; cited from earlier work
cabbage looper = settings: cited from earlier work
mosquito larvae = settings: cited from earlier work
ticks = assay: Activity on ticks; settings: in vivo

Structure (SMILES)	metabolism by the tobacco bud worm (tobacco bud worm)	toxicity (fish, mammals)	toxicity to beneficial mite species (beneficial mite species)	activity on fleas (fleas)	LC50 (cotton aphids)	activity (southern corn rootworm)	activity (tobacco budworm)	impact on predatory mites and many beneficial insects [1]	Number of live/dead A. americanum larvae 24 hours after treatment ([2]; 0.01% compound)	Number of live/dead A. americanum larvae 24 hours after treatment ([2]; 0.05% compound)	degradation by liver microsomes [3]	LC50 (cabbage looper)	LC50 (mosquito larvae)	activity on ticks (ticks)
CC(C)(C)c1ccc(CCOc2ncnc3ccccc23)cc1 [Formula I, 4-tert-butylphenethyl quinazolin-4-yl ether]	extensively metabolized	higher toxicity of the compound to fish than to mammals	relatively low toxicity	active	2.6 ppm	greater than 400 ppm	greater than 400 ppm	minimal impact	0/52	0/48	degraded more extensively by rat liver microsomes than by trout liver microsomes	188 ppm	0725 ppm	active
CCc1nn(C)c(C(=O)NCc2ccc(C(C)(C)C)cc2)c1Cl [Formula II, 4-chloro-5-ethyl-2-methyl-N-[(4-tert-butylphenyl)methyl]pyrazole-3-carboxamide]	–	–	relatively low toxicity	–	–	–	–	minimal impact	–	–	–	–	–	–
CC(C)(C)c1ccc(CSc2cnn(C(C)(C)C)c(=O)c2Cl)cc1 [pyridaben, 4-chloro-2-tert-butyl-5-[(4-tert-butylphenyl)methylsulfanyl]pyridazin-3-one]	–	–	–	–	–	–	–	minimal impact	–	–	–	–	–	–
